Experimental data as given in patent publication US6930113B2, “Nitrosated and nitrosylated phosphodiesterase inhibitors, compositions and methods of use” (Nitromed, Inc., priority 1996, dated 2005).

System: Human corpus cavernosum tissue
Assay: In vitro comparative relaxation responses (isometric tension of tissue strips in organ chambers)
Assay type: cell-based
Conditions: doses of 10 μM and 30 μM; tissue contracted with phenylephrine 7×10^−7 M; compared with equimolar dipyridamole; FIG. 58
Excerpt: Human corpus cavernosum tissue biopsies were obtained at the time of penile prosthesis implantation from impotent men. The tissue was maintained in a chilled Krebs-bicarbonate solution prior to assay. The tissue was cut into strips of 0.3×0.3×1 cm and suspended in organ chambers for isometric tension measurement. Tissues were incrementally stretched until optimal isometric tension for contraction was obtained. Once this was achieved, the tissues were contracted with phenylephrine (7×10^−7 M) and once a stable contraction was achieved, the tissues were exposed to either dipyridamole or the compound of Example 1 (10^−6 to 3×10^−5 M) by cumulative additions to the chamber. At the end of the experiment, papaverine (10^−4 M) was added to obtain maximal relaxation. […] Data were expressed as the percent loss in tone from the phenylephrine-induced contraction (0%=phenylephrine contraction; −100%=tone after administration of papaverine).

SMILES: CC(C)(CC(=O)OCCN(CCOC(=O)CC(C)(C)SN=O)c1nc(N2CCCCC2)c2nc(N(CCOC(=O)CC(C)(C)SN=O)CCOC(=O)CC(C)(C)SN=O)nc(N3CCCCC3)c2n1)SN=O [Example 1, 2,6-bis(Diethyl(3-methyl-3-(nitrosothio)butyric acid ester)amino)-4,8-dipiperidinopyrimido-[5,4-d]-pyrimidine]
- relaxing the phenylephrine-induced contraction (percent loss in tone from the phenylephrine-induced contraction): more efficacious
